According to ChEMBL document CHEMBL4052612, “Isolation and Identification of the Novel Tubulin Polymerization Inhibitor Bifidenone” (J Nat Prod, 2017):
Active and inactive are the calls of the source. No cut-off for these calls is given here.

Key:
[1] = system: UACC-62; test: Antiproliferative activity against human UACC62 cells after 72 hrs by CellTiter96 AQueous nonradioactive cell proliferation assay; format: functional, cell-based; conditions: UACC-62, 72 h
[2] = system: M14; test: Antiproliferative activity against human M14 cells after 72 hrs by CellTiter96 AQueous nonradioactive cell proliferation assay; format: functional, cell-based; conditions: M14, 72 h
[3] = system: NCI-H460; test: Antiproliferative activity against human NCI-H460 cells after 72 hrs by CellTiter96 AQueous nonradioactive cell proliferation assay; format: functional, cell-based; conditions: NCI-H460, 72 h
[4] = system: RAW264.7; test: Antiproliferative activity against mouse RAW264.7 cells after 18 hrs by CellTiter96 AQueous nonradioactive cell proliferation assay; format: cell-based; conditions: RAW264.7, 18 h
[5] = system: NCI/ADR-RES; test: Antiproliferative activity against human NCI-ADR-RES cells after 48 hrs by SRB assay; format: functional, cell-based
[6] = system: SK-MEL-2; test: Antiproliferative activity against human SK-MEL-2 cells after 72 hrs by CellTiter96 AQueous nonradioactive cell proliferation assay; format: functional, cell-based; conditions: SK-MEL-2, 72 h
[7] = system: PC-3; test: Antiproliferative activity against human PC3 cells after 72 hrs by CellTiter96 AQueous nonradioactive cell proliferation assay; format: functional, cell-based; conditions: PC-3, 72 h
[8] = system: SF-295; test: Antiproliferative activity against human SF295 cells after 72 hrs by CellTiter96 AQueous nonradioactive cell proliferation assay; format: functional, cell-based; conditions: SF-295, 72 h
[9] = system: ACHN; test: Antiproliferative activity against human ACHN cells after 72 hrs by CellTiter96 AQueous nonradioactive cell proliferation assay; format: functional, cell-based
[10] = system: A-375; test: Antiproliferative activity against human A375 cells after 72 hrs by CellTiter96 AQueous nonradioactive cell proliferation assay; format: functional, cell-based; conditions: A-375, 72 h
[11] = species on record: Sus scrofa; test: Displacement of vincristine from vinca alkaloid binding site of pig brain tubulin up to 100 uM by LC-MS analysis
[12] = system: NCI-H460; test: Induction of apoptosis in human NCI-H460 cells upto 100 uM assessed as increase in caspase3/7 activity after 24 hrs by Caspase-Glo 3/7 assay relative to control; format: functional
[13] = system: Malme-3M; test: Antiproliferative activity against human MALME-3M cells after 48 hrs by SRB assay; format: functional, cell-based
[14] = system: NCI-H460; test: Induction of necrosis in human NCI-H460 cells upto 100 uM assessed as increase in LDH levels after 24 hrs by CytoTox 96 nonradioactive cytotoxicity assay; format: functional, cell-based
[15] = species on record: Sus scrofa; test: Inhibition of pig brain tubulin polymerization measured every 1 min for 60 mins
[16] = system: MDA-MB-435; test: Antiproliferative activity against human MDA-MB-435 cells after SRB assay; format: functional, cell-based
[17] = species on record: Sus scrofa; test: Displacement of colchicine from colchicine-binding site of pig brain tubulin up to 100 uM by LC-MS analysis
[18] = system: NCI-H460; test: Cell cycle arrest in human NCI-H460 cells assessed as accumulation at G2/M phase at 1.5 uM measured after 6 to 24 hrs in the presence of RNase A by propidium iodide staining-based flow cytometry analysis; format: functional
[19] = system: SR; test: Antiproliferative activity against human SR cells after 48 hrs by SRB assay; format: functional, cell-based
[20] = Antiproliferative activity against human NCI60 cells after 48 hrs by SRB assay; format: functional, cell-based; conditions: NCI60, 48 h
[21] = system: HCC 2998; test: Antiproliferative activity against human HCC2998 cells after 48 hrs by SRB assay; format: functional, cell-based; conditions: HCC 2998, 48 h

SMILES	IC50 [1]	IC50 [2]	IC50 [3]	IC50 [4]	IC50 [5]	IC50 [6]	IC50 [7]	IC50 [8]	IC50 [9]	IC50 [10]	other results
CC(=O)O[C@H]1C(=O)[C@@]2(C)[C@H]([C@H](OC(=O)c3ccccc3)[C@]3(O)C[C@H](OC(=O)[C@H](O)[C@@H](NC(=O)c4ccccc4)c4ccccc4)C(C)=C1C3(C)C)[C@]1(OC(C)=O)CO[C@@H]1C[C@@H]2O [PACLITAXEL]	6 nM	7 nM	10 nM	> 5000 nM	> 10000 nM	9 nM	4 nM	56 nM	66 nM	10 nM	
C=CC[C@H]1C[C@]2([C@@H](C)Cc3ccc(OC)c(OC)c3)OCOC2=CC1=O	44 nM	64 nM	260 nM	> 5000 nM	170 nM	95 nM	490 nM	250 nM	360 nM	75 nM	inhibition [11]: inactive; fold change (FC) [12]: 2.5; IC50 [13]: < 100 nM; Activity [14]: Active; inhibition [15]: Dose-dependent effect; IC50 [16]: < 100 nM; inhibition [17]: Active; Activity [18]: Active; IC50 [19]: < 100 nM; IC50 [20]: 270 nM; IC50 [21]: 1410 nM
